Results as given in PubChem BioAssay (NCI).
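Cells were grown in 96-well plates and exposed to each compound for 48 hours at five concentrations; endpoints were interpolated linearly between bracketing concentrations, or set to the highest concentration if not reached. TGI marks complete inhibition of growth.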

How the values were obtained:
Assay in all cases: DTP human tumour cell line panel, 48 h
786-0 renal = system: 786-0 renal
A498 renal = system: A498 renal
A549 NSCLC = system: A549 NSCLC
BT-549 breast = system: BT-549 breast
CAKI-1 renal = system: CAKI-1 renal
COLO 205 colon = system: COLO 205 colon
DU-145 prostate = system: DU-145 prostate
EKVX NSCLC = system: EKVX NSCLC
HCC-2998 colon = system: HCC-2998 colon
HCT-116 colon = system: HCT-116 colon
HL-60(TB) leukemia = system: HL-60(TB) leukemia
HOP-62 NSCLC = system: HOP-62 NSCLC
HOP-92 NSCLC = system: HOP-92 NSCLC
HS 578T breast = system: HS 578T breast
HT29 colon = system: HT29 colon
IGROV1 ovarian = system: IGROV1 ovarian
K-562 leukemia = system: K-562 leukemia
KM12 colon = system: KM12 colon
LOX IMVI melanoma = system: LOX IMVI melanoma
M14 melanoma = system: M14 melanoma
MALME-3M melanoma = system: MALME-3M melanoma
MCF7 breast = system: MCF7 breast
MDA-MB-231 breast = system: MDA-MB-231 breast
MDA-MB-435 = system: MDA-MB-435
MDA-N = system: MDA-N
MOLT-4 leukemia = system: MOLT-4 leukemia
NCI-H226 lung = system: NCI-H226 lung
NCI-H23 lung = system: NCI-H23 lung
NCI-H522 lung = system: NCI-H522 lung
NCI/ADR-RES ovarian = system: NCI/ADR-RES ovarian
OVCAR-3 ovarian = system: OVCAR-3 ovarian
OVCAR-5 ovarian = system: OVCAR-5 ovarian
OVCAR-8 ovarian = system: OVCAR-8 ovarian
PC-3 prostate = system: PC-3 prostate
RPMI-8226 leukemia = system: RPMI-8226 leukemia
RXF 393 renal = system: RXF 393 renal
SF-268 CNS = system: SF-268 CNS
SF-295 CNS = system: SF-295 CNS
SK-MEL-2 melanoma = system: SK-MEL-2 melanoma
SK-MEL-28 melanoma = system: SK-MEL-28 melanoma
SK-MEL-5 melanoma = system: SK-MEL-5 melanoma
SK-OV-3 ovarian = system: SK-OV-3 ovarian
SN12C renal = system: SN12C renal
SNB-75 CNS = system: SNB-75 CNS
SW-620 colon = system: SW-620 colon
T-47D breast = system: T-47D breast
TK-10 renal = system: TK-10 renal
U251 CNS = system: U251 CNS
UACC-257 melanoma = system: UACC-257 melanoma
UACC-62 melanoma = system: UACC-62 melanoma
UO-31 renal = system: UO-31 renal
ACHN renal = system: ACHN renal
CCRF-CEM leukemia = system: CCRF-CEM leukemia
HCT-15 colon = system: HCT-15 colon
NCI-H460 lung = system: NCI-H460 lung
OVCAR-4 ovarian = system: OVCAR-4 ovarian
SNB-19 CNS = system: SNB-19 CNS
SF-539 CNS = system: SF-539 CNS

With `O=[N+]([O-])c1cccc(-c2ncnc(-c3cccc([N+](=O)[O-])c3)n2)c1` the TGI (786-0 renal) was over 100 µM, the TGI (A498 renal) was over 100 µM and the TGI (A549 NSCLC) was over 100 µM. The TGI (BT-549 breast) was over 100 µM, the TGI (CAKI-1 renal) was 93.3 µM and the TGI (COLO 205 colon) was over 100 µM. It also gave a TGI (DU-145 prostate) of over 100 µM, a TGI (EKVX NSCLC) of over 100 µM and a TGI (HCC-2998 colon) of over 100 µM. The TGI (HCT-116 colon) was over 100 µM, the TGI (HL-60(TB) leukemia) was over 100 µM and the TGI (HOP-62 NSCLC) was 37.5 µM. For the same molecule, the TGI (HOP-92 NSCLC) was 57.2 µM, the TGI (HS 578T breast) was over 100 µM and the TGI (HT29 colon) was over 100 µM. It also gave a TGI (IGROV1 ovarian) of over 100 µM, a TGI (K-562 leukemia) of over 100 µM and a TGI (KM12 colon) of over 100 µM. The TGI (LOX IMVI melanoma) was over 100 µM, the TGI (M14 melanoma) was over 100 µM and the TGI (MALME-3M melanoma) was over 100 µM. The TGI (MCF7 breast) was over 100 µM, the TGI (MDA-MB-231 breast) was 98.2 µM and the TGI (MDA-MB-435) was over 100 µM. The TGI (MDA-N) was over 100 µM, the TGI (MOLT-4 leukemia) was over 100 µM and the TGI (NCI-H226 lung) was over 100 µM. For the same molecule, the TGI (NCI-H23 lung) was over 100 µM, the TGI (NCI-H522 lung) was over 100 µM and the TGI (NCI/ADR-RES ovarian) was over 100 µM. For the same molecule, the TGI (OVCAR-3 ovarian) was over 100 µM, the TGI (OVCAR-5 ovarian) was over 100 µM and the TGI (OVCAR-8 ovarian) was over 100 µM. It also gave a TGI (PC-3 prostate) of over 100 µM, a TGI (RPMI-8226 leukemia) of over 100 µM and a TGI (RXF 393 renal) of 62.8 µM. It also gave a TGI (SF-268 CNS) of over 100 µM, a TGI (SF-295 CNS) of over 100 µM and a TGI (SK-MEL-2 melanoma) of over 100 µM. For the same molecule, the TGI (SK-MEL-28 melanoma) was over 100 µM, the TGI (SK-MEL-5 melanoma) was over 100 µM and the TGI (SK-OV-3 ovarian) was over 100 µM. For the same molecule, the TGI (SN12C renal) was over 100 µM, the TGI (SNB-75 CNS) was over 100 µM and the TGI (SW-620 colon) was over 100 µM. The TGI (T-47D breast) was over 100 µM, the TGI (TK-10 renal) was over 100 µM and the TGI (U251 CNS) was 59.6 µM. It also gave a TGI (UACC-257 melanoma) of over 100 µM, a TGI (UACC-62 melanoma) of 95.2 µM and a TGI (UO-31 renal) of over 100 µM.

`Clc1ccc(CSC2=NCCN2)cc1Cl` showed a TGI (786-0 renal) of 23.8 µM, a TGI (A498 renal) of 52.8 µM and a TGI (A549 NSCLC) of 98.9 µM. The TGI (ACHN renal) was 30.9 µM, the TGI (BT-549 breast) was 40.2 µM and the TGI (CAKI-1 renal) was 23.5 µM. For the same molecule, the TGI (CCRF-CEM leukemia) was 22.3 µM, the TGI (COLO 205 colon) was 37.9 µM and the TGI (DU-145 prostate) was 29.7 µM. It also gave a TGI (EKVX NSCLC) of 24.3 µM, a TGI (HCC-2998 colon) of 30.1 µM and a TGI (HCT-116 colon) of 28.7 µM. The TGI (HCT-15 colon) was 31.9 µM, the TGI (HL-60(TB) leukemia) was 27.7 µM and the TGI (HOP-62 NSCLC) was 47.1 µM. It also gave a TGI (HOP-92 NSCLC) of 13.8 µM, a TGI (HS 578T breast) of 53.7 µM and a TGI (HT29 colon) of 28.4 µM. It also gave a TGI (IGROV1 ovarian) of 39.1 µM, a TGI (K-562 leukemia) of 88.8 µM and a TGI (KM12 colon) of 33.5 µM. The TGI (LOX IMVI melanoma) was 30.1 µM, the TGI (M14 melanoma) was 30.6 µM and the TGI (MALME-3M melanoma) was 28.6 µM. It also gave a TGI (MCF7 breast) of 25.2 µM, a TGI (MDA-MB-231 breast) of 29.2 µM and a TGI (MDA-MB-435) of 30.5 µM. It also gave a TGI (MDA-N) of 25 µM, a TGI (MOLT-4 leukemia) of 35.9 µM and a TGI (NCI-H226 lung) of 42.3 µM. For the same molecule, the TGI (NCI-H23 lung) was 35.8 µM, the TGI (NCI-H460 lung) was 37.3 µM and the TGI (NCI-H522 lung) was 21.5 µM. The TGI (NCI/ADR-RES ovarian) was 49.8 µM, the TGI (OVCAR-3 ovarian) was 30.3 µM and the TGI (OVCAR-4 ovarian) was 27 µM. The TGI (OVCAR-5 ovarian) was 53.3 µM, the TGI (OVCAR-8 ovarian) was 40 µM and the TGI (PC-3 prostate) was 23.7 µM. The TGI (RPMI-8226 leukemia) was 36.3 µM, the TGI (RXF 393 renal) was 28.4 µM and the TGI (SF-268 CNS) was 42.5 µM. For the same molecule, the TGI (SF-295 CNS) was over 100 µM, the TGI (SK-MEL-28 melanoma) was 35.1 µM and the TGI (SK-MEL-5 melanoma) was 26 µM. For the same molecule, the TGI (SK-OV-3 ovarian) was 49.5 µM, the TGI (SN12C renal) was 35.8 µM and the TGI (SNB-19 CNS) was over 100 µM. For the same molecule, the TGI (SW-620 colon) was 35.4 µM, the TGI (T-47D breast) was 27 µM and the TGI (TK-10 renal) was 31.5 µM. It also gave a TGI (U251 CNS) of 27 µM, a TGI (UACC-257 melanoma) of 24.1 µM and a TGI (UACC-62 melanoma) of 30.5 µM. The TGI (UO-31 renal) was 23.6 µM.

`CC(C)(C)OC(=O)NCC(c1c[nH]c2ccc(Br)cc12)c1c[nH]c2ccc(Br)cc12` gave a TGI (786-0 renal) of 13.2 µM, a TGI (A498 renal) of 29.1 µM and a TGI (A549 NSCLC) of 17.2 µM. It also gave a TGI (ACHN renal) of 18.1 µM, a TGI (BT-549 breast) of 24.8 µM and a TGI (CAKI-1 renal) of 24.5 µM. For the same molecule, the TGI (CCRF-CEM leukemia) was 71.1 µM, the TGI (COLO 205 colon) was 16.2 µM and the TGI (DU-145 prostate) was 27.7 µM. The TGI (EKVX NSCLC) was 15.2 µM, the TGI (HCC-2998 colon) was 18 µM and the TGI (HCT-116 colon) was 13.8 µM. For the same molecule, the TGI (HCT-15 colon) was 20.8 µM, the TGI (HL-60(TB) leukemia) was 37.1 µM and the TGI (HOP-62 NSCLC) was 27.3 µM. It also gave a TGI (HOP-92 NSCLC) of 19.4 µM, a TGI (HS 578T breast) of 47.7 µM and a TGI (HT29 colon) of 12.2 µM. It also gave a TGI (IGROV1 ovarian) of 17.3 µM, a TGI (K-562 leukemia) of over 100 µM and a TGI (KM12 colon) of 19.4 µM. The TGI (LOX IMVI melanoma) was 22.7 µM, the TGI (M14 melanoma) was 12.6 µM and the TGI (MALME-3M melanoma) was 33.3 µM. For the same molecule, the TGI (MCF7 breast) was 22 µM, the TGI (MDA-MB-231 breast) was 32.1 µM and the TGI (MDA-MB-435) was 28.7 µM. The TGI (MDA-N) was 21.2 µM, the TGI (NCI-H226 lung) was 36.7 µM and the TGI (NCI-H23 lung) was 14.5 µM. For the same molecule, the TGI (NCI-H522 lung) was 25.2 µM, the TGI (NCI/ADR-RES ovarian) was 23.1 µM and the TGI (OVCAR-3 ovarian) was 17.2 µM. It also gave a TGI (OVCAR-4 ovarian) of 25.9 µM, a TGI (OVCAR-5 ovarian) of 20.2 µM and a TGI (OVCAR-8 ovarian) of 45.6 µM. For the same molecule, the TGI (PC-3 prostate) was 11.8 µM, the TGI (RPMI-8226 leukemia) was over 100 µM and the TGI (RXF 393 renal) was 25.7 µM. It also gave a TGI (SF-268 CNS) of 25.6 µM, a TGI (SF-295 CNS) of 21.9 µM and a TGI (SF-539 CNS) of 27.8 µM. It also gave a TGI (SK-MEL-2 melanoma) of 22.3 µM, a TGI (SK-MEL-28 melanoma) of 34.9 µM and a TGI (SK-MEL-5 melanoma) of 19 µM. It also gave a TGI (SN12C renal) of 18.1 µM, a TGI (SNB-19 CNS) of 23.3 µM and a TGI (SW-620 colon) of 24.9 µM. It also gave a TGI (T-47D breast) of 32.9 µM, a TGI (TK-10 renal) of 25.2 µM and a TGI (U251 CNS) of 19.1 µM. It also gave a TGI (UACC-257 melanoma) of 25.6 µM, a TGI (UACC-62 melanoma) of 23.1 µM and a TGI (UO-31 renal) of 19.6 µM.
